{"source": "patent US6063803A", "about": "“Octahydropyrrolo-[3,4-c]carbazoles useful as analgesic agents” (Ortho-McNeil Pharmaceutical, Inc., priority 1999, dated 2000)", "key": {"[1]": {"test": "mouse acetylcholine bromide-induced abdominal constriction assay", "format": "in vivo, mice (Male, Cr1:CD-1)", "experimental": "The analgesic activity of compounds of Formula I were determined in the following in vivo assay. The procedure was run essentially as described by H. Collier et al. in B. J. Pharmacol. Chemother., 32: 295-310, 1968, with minor modifications. Mice (Male, Cr1:CD-1, Charles River Laboratories) were used in the following example. The test drugs or appropriate vehicle were administered orally (10 mL/kg, p.o.) or subcutaneously (10 mL/kg, s.c.) and 30 minutes later the animal received an intraperitoneal (i.p.) injection of 5.5 mg/kg acetylcholine bromide. The mice were then placed in glass bell jars and observed for a ten minute observation period for the occurrence of an abdominal constriction response (defined as a wave of constriction and elongation passing caudally along the abdominal wall, accompanied by a twisting of the trunk and followed by extension of the hind limbs). The percent inhibition of this response to antinociceptive stimulus (equated to % analgesia) was calculated as follows: The % inhibition of response, i.e., % analgesia is equal to the number of non-responding drug-treated animals×100 divided by the number of animals in the group.\nThe ED50 values and their 95% fiducial limits were determined by a computer assisted probit analysis. […] This effect lasted for 4-5 hours.\nTable A lists the % inhibition for some compounds of the invention. Unless otherwise indicated the compounds were administered s.c. at 30 mg/kg. [drawing 63]"}, "α1-adrenergic receptor": {"target": "α1-adrenergic receptor", "test": "α1-adrenergic receptor binding (3H-prazosin displacement, rat cortex membranes)", "design": "species or system rat (Wistar)", "details": "3H-prazosin 0.05 nM, 25° C., 20 min", "from_the_text": "Charles River male Wistar (virus-free) rats were group housed for approximately one week and given food and water (Wayne Lab Blox) ad libitum. Animals were exposed to equal hours(12--12) of dark and light and used at a weight range of 150-280 g (8 to 10 weeks of age). Rats were sacrificed by cervical dislocation and their brains were rapidly excised and immediately placed on ice. The cortex was removed, weighed, and used immediately or frozen on dry ice.\nThe frozen tissue was homogenized in 20 volumes of HEPES buffered sucrose (10 mM HEPES, 300 mM sucrose, pH 7.5) using a motor driven Teflon pestle/glass homogenizer (all homogenates and solutions were maintained at 4-8° C.). The homogenate was centrifuged at 1000×g for 10 minutes, and the supernatant was recentrifuged at 48,000×g for 10 min. […]\nThe samples were incubated in a 25° C. water bath for 20 min, harvested on a Brandel Cell Harvester on to Wallac filtermat-B sheets (96 sample format), washed three times with 2 mL cold HEPES-buffer (10 mM, pH 7.5), and dried in a microwave oven. To each sample area 80 ul of Betaplate Scint scintillation fluid (LKB) was added and analyzed on a LKB (Wallac) 1205 BetaPlate liquid scintillation counter.\nThe data were used to calculate either the % inhibition compared to control binding (a single concentration of test compound is evaluated) or a Ki value (a range of concentrations are tested). […]"}, "[2]": {"test": "mouse hot plate assay (48° C.)", "format": "in vivo, mice", "details": "mouse hot plate 48° C.", "experimental": "The test was essentially described by N. Eddy and D. Leimbach, Synthetic Analgesics II Dithienylbutenyl- and Dithienylbutylamines, J. Pharmacol. Exp. Ther., 107, 385-93 (1953) and J. O'Callaghan and S. Holtzman, Qualification of the Analgesic Activity of Narcotic Antagonists by a Modified Hot-Plate Procedure, J. Pharmacol. Exp. Ther, 192, 497-505 (1975), with minor modifications. Mice were placed on a heated surface (48° C.) and the time interval (seconds) between placement and a shaking, licking, or tucking of the hind paw was recorded as the predrug latency response. This procedure was repeated 30 minutes after the administration of a test compound (p.o., 10 mL/kg). The percent maximum possible antinociceptive effect (% MPE) was determined using the following formula: % MPE=100×(Test latency-Predrug latency)/(Cutoff time-Predrug Latency), using the predrug latency of each animal and cutoff time established to prevent injury to the animal. The cutoff time was 90s.\nThe ED50 value and 95% confidence intervals were determined using a computer-assisted linear regression analysis of the dose-response curve, including an analysis of variance test for linearity. Oral dosing of Compound 58 produced an analgesic effect after 15 min. This effect lasted for one hour."}, "[3]": {"details": "mouse abdominal constriction, oral dosing"}}, "data": [{"smiles": "CN1CC2CCc3[nH]c4ccccc4c3C2C1", "note": "(single isomer, unassigned) [Compound 58]", "values": [{"measurement": "responders at 30 mg/kg", "setting": "[1]; Mus musculus, 0.5 h, 30 mg/kg po, acetylcholine bromide 5.5 mg/kg i.p. 30 min later, read-out: % inhibition @ 30 mg/kg (po)", "value": 100, "unit": "%"}, {"measurement": "analgesic effect observed, time after oral dosing", "setting": "[1]; [3]", "value": 15, "unit": "min"}, {"measurement": "duration of analgesic effect", "setting": "[1]; [3]", "value": "4 to 5", "unit": "h"}, {"measurement": "ED50", "setting": "[1]; mouse acetylcholine abdominal constriction, probit analysis, read-out: ED50", "value": 5.8, "unit": "mg/kg"}, {"measurement": "Ki", "setting": "α1-adrenergic receptor", "value": 61, "unit": "nM"}, {"measurement": "analgesic effect, time after oral dosing", "setting": "[2]; oral dosing", "value": 15, "unit": "min"}, {"measurement": "ED50", "setting": "[2]; po, 0.5 h, p.o., cutoff 90s, read-out: ED50", "value": 14.2, "unit": "mg/kg"}]}]}
